Values quoted from earlier work as cited in patent publication US20260083720A1 (Vyluma Inc., priority 2022, published 2026).

Key:
myopia progression [1] = details: Yam et al., atropine at 0.01%; dose-dependent between 0.05% and 0.01%
myopia progression [2] = details: Chan, 0.01% concentration, period of 6 months
myopia progression [3] = details: Wei et al., atropine-placebo group
myopia progression [4] = details: Hieda et al., atropine group

## CN1[C@@H]2CC[C@H]1C[C@@H](OC(=O)C(CO)c1ccccc1)C2 (some centres unmarked) [atropine]
Myopia progression [1]
  effect of atropine on myopia progression: only relatively small effects
Myopia progression [2]
  changes in mean SER and AL: can be reduced
Myopia progression [3]
  mean myopia progression after 24 months: −1.26 D
Myopia progression [4]; placebo 0.77
  mean AL changes at 24 mo: 0.63 mm
Myopia progression [4]; placebo −1.48
  Mean SER changes at 24 mo: −1.26 D
